Experimental data from patent publication US20230139328A1, “DOSAGE FORMS FOR IMPROVING ORGAN TRANSPLANTATION, GRAFT VERSUS HOST DISEASE AND STEM CELLS TRANSPLANTS” (Aphios Corporation, priority 2020, published 2023).
“Also recorded” adds a separate entry of the source.

Key:
[1] = test system: neutrophil migration across confluent HMECs; experiment: LTB4 induced neutrophil migration across HMEC monolayers (transwell, MPO assay); assay type: cell-based, human; details: for effect on LTB4 induced neutrophil migration at 1 nM / effect on LTB4 induced neutrophil TEM at higher doses (100 nM): 1 h pretreatment, 100 nM LTB4; for effect on LTB4 induced neutrophil migration (dose response): 1 h pretreatment at 1-100 nM, 100 nM LTB4, 3 h migration
Description: FIG. 6 graphically depicts protection against LTB4 induced PMN TEM with PMA up to 48 h after pretreatment. HMECs were pretreated for 1 h with PMA and washed with HBSS three times to remove PMA prior to replacement of culture medium. Neutrophil migration studies were then performed at 0, 24, or 48 hours. Migration was stimulated by adding 500,000 neutrophils to the top well and 100 nM LTB4 to the lower well at 0, 24, and 48 hours after PMA pretreatment. […] PMA (100 nM, (10^−7M) reduced LTB4 induced migration up to 48 hours after 1 h of endothelial-specific pretreatment (***p<0.001).
Referring now to FIG. 7, FIG. 7 graphically depicts protection from LTB4 induced PMN TEM with Bryostatin-1 up to 48 hours after pretreatment. HMECs were pretreated for 1 h with Bryostatin-1 and washed with HBSS three times to remove Bryostatin-1 prior to replacement of culture medium. Neutrophil migration studies were then performed at 0, 24, or 48 hours. Migration was stimulated by adding 500,000 neutrophils to the top well and 100 nM LTB4 to the lower well at 0, 24, and 48 hours after Bryostatin-1 pretreatment. […] Bryostatin-1 (100 nM) reduced LTB4 induced migration up to 48 hours after 1-hour endothelial pretreatment (***p<0.001).
Cell Culture: HMECs were a generous gift from Dr. Francisco Candal (Centers for Disease Control), and are derived from the subcutaneous microvasculature. HMECs were maintained in MCDB-131 supplemented with 10% FCS, 1% antibiotic antimycotic, 10 ng/ml EGF, and […] hydrocortisone. The cell cultures were incubated at 37° C. in a humidified atmosphere with 7.5% CO2 and expanded by brief trypsinization (0.25% trypsin in phosphate-buffered saline containing 0.02% EDTA). HMECs were seeded onto 8 μm inserts for migration assays and 48-well plates for endothelial viability studies. Human umbilical vein endothelial cells (HUVECs) were harvested from umbilical cords by 0.25% collagenase treatment for 20 min at 37° C. HUVECs were maintained in Endothelial Growth Medium (EGM) supplemented with Bovine Brain Extract. The cell cultures were incubated at 37° C. in a 100% humidified atmosphere with 5% C02 and expanded by brief trypsinization. Primary passage HUVEC were seeded onto fibronectin coated (25 μg/ml)8 μm inserts for migration assays and 48-well plates for endothelial viability studies. Culture medium was replaced every second day. Cells were identified as endothelial cells by their cobblestone appearance at confluency, positive labeling with acetylated low density lipoprotein labeled with 1,11-dioctadecyl-1 3,3,31,31,3-tetramethylindocarbocyanine perchlorate (Dil-Ac-LDL; Biomedical Technologies, Inc.) and mouse antihuman factor […] (Calbiochem, San Diego, Calif.).
Neutrophil Isolation: Neutrophils were isolated using a Ficoll gradient. Whole blood was taken from human donors, and 5 ml was layered on top of two layers of Histopaque. Tubes were spun at 2,100 rpm for 40 min. The neutrophil layer was added to cold PBS and re-spun at 2,100 rpm for 5 min. Supernatant was removed and neutrophils were suspended in a fixed amount of PBS to determine cell count. Cells were kept on ice until assays were performed.
[…] Inserts were washed three times with Hank's Balanced Salt Solution (HBSS) (to eliminate drug effects on the neutrophils) and placed in a new plate containing either 500 μL 100 nM LTB4, or HBSS alone for control. 500 μL HBSS was then added to the top well and spiked with 500,000 neutrophils. For TNF-α experiments, HMECs were left in 20 ng/ml TNF-α in MCDB-131 for 24 h TNF-α was removed and HMECs washed three times. […] The drug was removed, and cells were washed three times. 500 μL HBSS was added to both upper and lower chambers and spiked with 500,000 neutrophils. Neutrophils were allowed to migrate for 3 h at 37° C. Migration was stopped by removing the inserts and migration was measured using the myeloperoxidase (MPO) assay.
Myeloperoxidase Assay: Neutrophil migration was measured using myeloperoxidase (MPO) analysis. […]

[2] = test system: neutrophil migration; experiment: Neutrophil migration induced by 24 h TNF-α pretreatment combined with a 100 nM LTB4 gradient; assay type: cell-based, human; details: 24 h TNF-α pretreatment and 100 nM LTB4 gradient; data not shown
Description: Migration Assays: At confluency HMECs were treated for 1 h at 37° C. with Bryostatin-1 (10 nM, 100 nM) in MCDB-131 media or MCDB-131 media alone. Inserts were washed three times with Hank's Balanced Salt Solution (HBSS) (to eliminate drug effects on the neutrophils) and placed in a new plate containing either 500 μL 100 nM LTB4, or HBSS alone for control. 500 μL HBSS was then added to the top well and spiked with 500,000 neutrophils. For TNF-α experiments, HMECs were left in 20 ng/ml TNF-α in MCDB-131 for 24 h TNF-α was removed and HMECs washed three times. HMECs were treated for 1 h with Bryostatin-1 in endothelial growth medium (EGM) (10 nM, 100 nM). The drug was removed, and cells were washed three times. […] Neutrophils were allowed to migrate for 3 h at 37° C. Migration was stopped by removing the inserts and migration was measured using the myeloperoxidase (MPO) assay.
Myeloperoxidase Assay: Neutrophil migration was measured using myeloperoxidase (MPO) analysis. […] The supernatant was removed, and MPO activity was measured using TMB/peroxide as chromogen. The reaction was stopped with sulfuric acid and absorbance was read at 450 nm using a microplate reader. […] Data was expressed as “% neutrophil migration”, which allowed cumulative statistical analysis to be done and account for unpreventable batch-to-batch variations.

[3] = test system: neutrophil migration across HUVECs; experiment: Time course of LTB4 induced neutrophil migration across HUVECs; assay type: cell-based, human; details: single 1 h 100 nM pretreatment, washed, tested at 0, 24, 48 h
Description: Time Course Assays: At confluency, HUVECs were treated for 1 h at 37° C. with Bryostatin-1 (10 nM, 100 nM) in EGM or EGM alone. Inserts were washed three times with HBSS (to reduce drug effects on the neutrophils) and migration assays were ran at t=0, 24, or 48 h. After time elapsed, HUVECs were placed in a new plate containing either 500 μL 100 nM LTB4 or HBSS alone for control. 500 μL HBSS was then added to the top well and spiked with 500,000 neutrophils. Neutrophils were allowed to migrate for 3 h at 37° C. Migration was stopped by removing the inserts and migration was measured using the MPO assay.
Myeloperoxidase Assay: Neutrophil migration was measured using myeloperoxidase (MPO) analysis. Cell culture inserts were first removed, and plates were spun at 1,500 RPM for 5 min. The supernatant was removed, and MPO activity was measured using TMB/peroxide as chromogen. The reaction was stopped with sulfuric acid and absorbance was read at 450 nm using a microplate reader. All experiments were performed n=6. Data was expressed as “% neutrophil migration”, which allowed cumulative statistical analysis to be done and account for unpreventable batch-to-batch variations.

[4] = cited from earlier work
[5] = test system: T84 intestinal epithelia; details: cited from earlier work

Structure (SMILES)	effect on LTB4 induced neutrophil migration at 1 nM [1]	effect on LTB4 induced neutrophil TEM at higher doses (100 nM) [1]	effect on LTB4 induced neutrophil migration (dose response) [1]	effect on migration induced by TNF-α pretreatment plus LTB4 gradient [2]	time after pretreatment for which reduction of LTB4 induced migration is maintained, HUVECs [3]	time after pretreatment for which reduction of LTB4 induced migration is maintained, HMECs ([1]; single 1 h 100 nM pretreatment, washed, tested at 0, 24, 48 h)	major side effects associated with use ([4]; Phase II trials, combination with other drugs, cancers)	cardiovascular disturbances or edema ([4]; clinical use)	adverse effects at dosing ranges higher than 100 ng/ml plasma level ([4]; healthy subjects and cancer patients)	barrier function and TNF-α induced barrier loss [5]
CCCCCCCCCCCCCC(=O)O[C@@H]1[C@@H](C)[C@@]2(O)[C@@H](C=C(CO)C[C@]3(O)C(=O)C(C)=C[C@@H]23)[C@@H]2C(C)(C)[C@]12OC(C)=O [PMA, phorbol myristate acetate]	did not reduce PMN TEM; also recorded: had no effect	attenuated neutrophil TEM to levels below that of basal migration	dose-dependently reduced; also recorded: reduced LTB4 induced migration in a dose dependent manner	reduced migration	up to 48 h					
CCC/C=C/C=C/C(=O)O[C@H]1/C(=C/C(=O)OC)C[C@H]2C[C@H]([C@@H](C)O)OC(=O)C[C@H](O)C[C@@H]3C[C@H](OC(C)=O)C(C)(C)[C@](O)(C[C@@H]4C/C(=C/C(=O)OC)C[C@H](/C=C/C(C)(C)[C@]1(O)O2)O4)O3 [Bryostatin-1]	did not reduce PMN TEM	attenuated neutrophil TEM to levels below that of basal migration	dose-dependently reduced; also recorded: reduced LTB4 induced migration in a dose dependent manner	reduced migration	48 h	48 h	myalgias, nausea, and vomiting	no cardiovascular disturbances or evidence of edema have been observed	no adverse effects	enhances barrier function and inhibits barrier loss induced by TNF-α
